This is an account of results in patent US20230047816A1 (priority 2018, published 2023).

Bounds are passed on as bounds.

The target in the assay is Recombinant full length human PFKFB3 (Homo sapiens, UniProt Q16875). Kind of assay: PFKFB3 kinase activity assay (ADP production, ADP-Glo).
Sequence of Recombinant full length human PFKFB3 (Q16875 whole entry): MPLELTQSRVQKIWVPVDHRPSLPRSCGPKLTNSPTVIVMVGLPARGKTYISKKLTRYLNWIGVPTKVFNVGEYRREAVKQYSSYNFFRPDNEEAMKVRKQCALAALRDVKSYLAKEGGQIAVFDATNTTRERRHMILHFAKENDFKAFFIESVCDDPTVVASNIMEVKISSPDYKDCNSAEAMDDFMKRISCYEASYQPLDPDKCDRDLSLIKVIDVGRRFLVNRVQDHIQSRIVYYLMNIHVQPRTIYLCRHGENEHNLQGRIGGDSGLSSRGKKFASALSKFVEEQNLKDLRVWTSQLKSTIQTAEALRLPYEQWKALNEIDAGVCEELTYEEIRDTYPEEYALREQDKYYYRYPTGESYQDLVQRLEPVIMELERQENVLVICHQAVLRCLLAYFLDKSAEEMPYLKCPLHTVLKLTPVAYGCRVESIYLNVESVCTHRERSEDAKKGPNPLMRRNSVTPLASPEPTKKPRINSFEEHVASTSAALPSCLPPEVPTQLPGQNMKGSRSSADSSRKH
Broadly, the IC50 is the concentration at which inhibition is half-maximal. For `CNC(=O)c1cc(CO)ccc1C(=O)Nc1sc(C)c(-c2ccc(OC)cc2)c1C#N` [Example 15, N1-[3-cyano-4-(4-methoxyphenyl)-5-methylthiophen-2-yl]-4-(hydroxymethyl)-N2-methylbenzene-1,2-dicarboxamide], the IC50 was below 20000 nM.
The value for `CCCCS(=O)(=O)NC(=O)c1ccc2c(c1)C(=O)N(c1sc(C)c(-c3ccc(OC)cc3)c1C#N)C2=O` [Example 15] was 5000 to 20000 nM.
The value for `O=C(O)c1cc(C(=O)O)c(C(=O)Nc2cc(-c3ccc(F)c(F)c3)ccc2C(=O)O)cc1O` [Example 16, 4-({4-carboxy-3′,4′-difluoro-[1,1′-biphenyl]-3-yl}carbamoyl)-6-hydroxybenzene-1,3-dicarboxylic acid] was below 20000 nM; that for `COc1ccc(-c2c(C)sc(N3C(=O)c4ccc(C(=O)N[C@@H](CO)C(=O)O)cc4C3=O)c2C#N)cc1` [Example 16] was 2000 to 5000 nM.
The result for `O=C(O)c1ccc(NC(=O)c2cccc(-c3ccccc3)c2)c(C(=O)O)c1` [Example 17, 4-{[1,1′-biphenyl]-3-amido}benzene-1,3-dicarboxylic acid] reads 500 to 2000 nM; that for `COc1ccc(-c2c(C)sc(N3C(=O)c4ccc(C(=O)N[C@@H](Cc5c[nH]c6ccccc56)C(=O)O)cc4C3=O)c2C#N)cc1` [Example 17], 500 to 2000 nM; that for `O=C(Nc1cc(Cl)c(-c2c[nH]nn2)cc1C(=O)O)c1cccc(-c2ccccc2)c1` [Example 18, 2-([1,1′-biphenyl]-3-carboxamido)-4-chloro-5-(1H-1,2,3-triazol-5-yl)benzoic acid], 5000 to 20000 nM.
On to `O=C(O)c1cc(-c2cnn[nH]2)c(Cl)cc1NC(=O)c1cc(-c2ccc(F)c(F)c2)ccc1C(=O)O` [Example 19, 3-((2-carboxy-5-chloro-4-(1H-1,2,3-triazol-5-yl)phenyl)carbamoyl)-3′,4′-difluoro-[1,1′-biphenyl]-4-carboxylic acid], for which the IC50 was below 500 nM.
The value for `COc1ccc(-c2c(C)sc(N3C(=O)c4ccc(C(=O)N[C@H](C(=O)O)C(C)C)cc4C3=O)c2C#N)cc1` [Example 19] was 5000 to 20000 nM.
Take `O=C(O)c1cc(Cl)c(-c2cnn[nH]2)cc1NC(=O)c1cc(-c2ccc(F)c(F)c2)ccc1C(=O)O` [Example 20, 3-((2-carboxy-4-chloro-5-(1H-1,2,3-triazol-5-yl)phenyl)carbamoyl)-3′,4′-difluoro-[1,1′-biphenyl]-4-carboxylic acid]: the concentration for half-maximal inhibition (IC50) fell in the range of 2000 to 5000 nM.
The result for `O=C(O)c1ccc(-c2ccc(F)c(F)c2)cc1NC(=O)c1cc(-c2cnn[nH]2)ccc1C(=O)O` [Example 21, 3-(2-carboxy-5-(1H-1,2,3-triazol-5-yl)benzamido)-3′,4′-difluoro-[1,1′-biphenyl]-4-carboxylic acid] reads below 500 nM; that for `COc1ccc(-c2c(C)sc(N3C(=O)c4ccc(C(=O)N[C@@H](CCC(N)=O)C(=O)O)cc4C3=O)c2C#N)cc1` [Example 21], 5000 to 20000 nM; that for `O=C(O)c1ccc(-c2ccc(F)c(F)c2)cc1NC(=O)c1ccc(-c2cnn[nH]2)cc1C(=O)O` [Example 22, 3-[2-carboxy-4-(1H-1,2,3-triazol-5-yl)benzamido]-3′,4′-difluoro-[1,1′-biphenyl]-4-carboxylic acid], below 500 nM.
In the case of `O=C(NS(=O)(=O)c1ccccc1)c1ccc2c(c1)C(=O)N(c1ccc(-c3ccccc3)cc1C(=O)O)C2=O` [Example 22], the IC50 fell in the range of 2000 to 5000 nM.
The value for `CCCCS(=O)(=O)NC(=O)c1ccc2c(c1)C(=O)N(c1ccc(-c3ccccc3)cc1C(=O)O)C2=O` [Example 24, 4-[5-(Butane-1-sulfonylaminocarbonyl)-1,3-dioxo-1,3-dihydroisoindol-2-yl]biphenyl-3-carboxylic Acid] was 2000 to 5000 nM.
The result for `CS(=O)(=O)NC(=O)c1ccc2c(c1)C(=O)N(c1cc(-c3ccccc3)ccc1C(=O)O)C2=O` [Example 25, 3-(5-Methanesulfonylaminocarbonyl-1,3-dioxo-1,3-dihydroisoindol-2-yl)biphenyl-4-carboxylic Acid] reads below 500 nM.
The result for `CN(C)S(=O)(=O)c1cc(-c2cnn[nH]2)c(Cl)cc1C(=O)Nc1cc(-c2ccc(F)c(F)c2)ccc1C(=O)O` [Example 26, 3-(5-chloro-2-(N,N-dimethylsulfamoyl)-4-(1H-1,2,3-triazol-5-yl)benzamido)-3′,4′-difluoro-[1,1′-biphenyl]-4-carboxylic acid] reads 2000 to 5000 nM; that for `O=C(O)c1cc(C(=O)O)c(C(=O)Nc2cc(-c3ccc(F)c(F)c3)ccc2O)cc1O` [Example 27, 4-((3′,4′-difluoro-4-hydroxy-[1,1′-biphenyl]-3-yl)carbamoyl)-6-hydroxyisophthalic acid], below 500 nM; that for `NC(=O)c1ccc2c(c1)C(=O)N(c1ccc(-c3ccccc3)cc1C(=O)O)C2=O` [Example 27], 2000 to 5000 nM.
Regarding `O=C(O)c1cc(C(=O)Nc2cc(-c3ccc(F)c(F)c3)ccc2C(=O)O)c(C(=O)O)cc1O` [Example 28, 2-({4-carboxy-3′,4′-difluoro-[1,1′-biphenyl]-3-yl}carbamoyl)-5-hydroxybenzene-1,4-dicarboxylic acid], the 50% inhibitory concentration (IC50) is below 500 nM.
The result for `NC(=O)c1ccc2c(c1)C(=O)N(c1cc(-c3ccccc3)ccc1C(=O)O)C2=O` [Example 28] reads 500 to 2000 nM; that for `COc1ccc(-c2c(C)sc(NC(=O)c3cc(C(=O)O)ccc3C(=O)O)c2C#N)cc1` [Example 29, 2-{[3-cyano-4-(4-methoxyphenyl)-5-methylthiophen-2-yl]carbamoyl}benzene-1,4-dicarboxylic acid], 5000 to 20000 nM; that for `O=C(O)c1cc(-c2ccccc2)ccc1N1C(=O)c2ccc(-c3cn(Cc4ccccc4)nn3)cc2C1=O` [Example 29], 2000 to 5000 nM.
The value for `COc1ccc(-c2c(C)sc(NC(=O)c3ccc(C(=O)O)cc3C(=O)O)c2C#N)cc1` [Example 30, 4-{[3-cyano-4-(4-methoxyphenyl)-5-methylthiophen-2-yl]carbamoyl}benzene-1,3-dicarboxylic acid] was below 500 nM; that for `CC(C)(C)C(=O)OCn1cc(-c2ccc3c(c2)C(=O)N(c2ccc(-c4ccccc4)cc2C(=O)O)C3=O)nn1` [Example 30] was 2000 to 5000 nM; that for `O=C(O)c1cc(-c2ccccc2)ccc1N1C(=O)c2ccc(-c3c[nH]nn3)cc2C1=O` [Example 31, 4-[1,3-Dioxo-5-(1H-[1,2,3]triazol-4-yl)-1,3-dihydroisoindol-2-yl]biphenyl-3-carboxylic Acid] was below 500 nM.
As for `CN(C)C(=O)c1cc(C(=O)O)c(O)cc1C(=O)Nc1cc(-c2ccc(Cl)cc2Cl)ccc1C(=O)O` [Example 32, 3-(4-carboxy-2-(dimethylcarbamoyl)-5-hydroxybenzamido)-2′,4′-dichloro-[1,1′-biphenyl]-4-carboxylic acid], the concentration for half-maximal inhibition (IC50) is 500 to 2000 nM.
`COc1ccc(-c2c(C)sc(NC(=O)c3cc(O)c(C(=O)O)cc3C(=O)O)c2C#N)cc1` [Example 33, 4-((3-cyano-4-(4-methoxyphenyl)-5-methylthiophen-2-yl)carbamoyl)-6-hydroxyisophthalic acid]: the concentration for half-maximal inhibition (IC50) is below 500 nM.
The value for `COC(=O)c1cc(-c2ccccc2)ccc1N1C(=O)c2ccc(-c3c[nH]nn3)cc2C1=O` [Example 33] was below 20000 nM; that for `CS(C)(=O)=NC(=O)c1ccc(C(=O)O)c(C(=O)Nc2cc(-c3ccc(F)c(F)c3)ccc2C(=O)O)c1` [Example 36, 3-(2-carboxy-5-{[methyl(methylidene)oxo-λ^6-sulfanyl]carbamoyl}benzamido)-3′,4′-difluoro-[1,1′-biphenyl]-4-carboxylic acid] was 500 to 2000 nM.
On to `O=C(O)c1cc(C(=O)Nc2cc(-c3ccc(F)c(F)c3)ccc2O)c(C(=O)O)cc1O` [Example 37, 2-({3′,4′-difluoro-4-hydroxy-[1,1′-biphenyl]-3-yl}carbamoyl)-5-hydroxybenzene-1,4-dicarboxylic acid], for which the IC50 was below 500 nM.
The value for `COC(=O)c1ccc(-c2ccccc2)cc1N1C(=O)c2ccc(C(=O)O)cc2C1=O` [Example 37] was 500 to 2000 nM; that for `O=C(O)c1ccc(C(=O)Nc2ncc([N+](=O)[O-])s2)c(C(=O)O)c1` [Example 38, 4-[(5-nitro-1,3-thiazol-2-yl)carbamoyl]benzene-1,3-dicarboxylic acid] was below 500 nM.
Regarding `COC(=O)c1cc(-c2ccccc2)c(OC)cc1N1C(=O)c2ccc(-c3c[nH]nn3)cc2C1=O` [Example 38], the IC50 was 5000 to 20000 nM.
For `O=C(O)c1ccc(C(=O)O)c(C(=O)Nc2ncc([N+](=O)[O-])s2)c1` [Example 39, 2-[(5-nitro-1,3-thiazol-2-yl)carbamoyl]benzene-1,4-dicarboxylic acid], the half-inhibitory concentration (IC50) lay within 500 to 2000 nM.
The result for `CCCCOC(=O)c1ccc2c(c1)C(=O)N(c1cc(OC)c(-c3ccccc3)cc1C(=O)OC)C2=O` [Example 39] reads below 20000 nM; that for `O=C(O)c1ccc(C(=O)O)c(C(=O)Nc2nc(-c3ccccc3)cs2)c1` [Example 40, 2-[(4-phenyl-1,3-thiazol-2-yl)carbamoyl]benzene-1,4-dicarboxylic acid], below 20000 nM.
Turning to `COC(=O)c1cc(-c2ccccc2)ccc1N1C(=O)c2ccc(C(=O)NS(C)(=O)=O)cc2C1=O` [Example 40], the IC50 is below 20000 nM.
The value for `CS(C)(=O)=NC(=O)c1ccc(C(=O)Nc2cc(-c3ccc(F)c(F)c3)ccc2C(=O)O)c(C(=O)O)c1` [Example 41, 3-(2-carboxy-4-{[methyl(methylidene)oxo-λ^6-sulfanyl]carbamoyl}benzamido)-3′,4′-difluoro-[1,1′-biphenyl]-4-carboxylic acid] was below 500 nM; that for `COC(=O)c1ccc(-c2ccccc2)cc1N1C(=O)c2ccc(C(=O)NS(C)(=O)=O)cc2C1=O` [Example 41] was below 20000 nM.
The value for `CN(C)C(=O)c1cc(O)c(C(=O)N=S(C)(C)=O)cc1C(=O)Nc1cc(-c2ccc(Cl)cc2Cl)ccc1C(=O)O` [Example 42, 2′,4′-dichloro-3-(5-((dimethyl(oxo)-λ^6-sulfanylidene)carbamoyl)-2-(dimethylcarbamoyl)-4-hydroxybenzamido)-[1,1′-biphenyl]-4-carboxylic acid] was 2000 to 5000 nM.
The result for `COC(=O)c1cc(-c2ccccc2)c(OC)cc1N1C(=O)c2ccc(C(=O)O)cc2C1=O` [Example 42] reads 500 to 2000 nM.
